Measurements published in ChEMBL document CHEMBL1201862, “PubChem BioAssay data set” (2004).
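Method: 48-hour compound exposure of cells in 96-well plates, five concentrations, linear interpolation of endpoints. GI50 is the concentration that inhibits growth by half.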 Active and inactive are the calls of the source. Cut-off read from the data, not from the text of the source: active = GI50 up to about 1.1 µM and inactive = higher.

Key:
Test in all cases: NCI anticancer screen, dose series, 48 h
[1] = test system: RPMI-8226
[2] = test system: NCI-H460
[3] = test system: SK-MEL-5
[4] = test system: NCI-H522
[5] = test system: UACC-62
[6] = test system: HCT-15
[7] = test system: U-251
[8] = test system: HOP-92
[9] = test system: A498
[10] = test system: CAKI-1
[11] = test system: NCI-H23
[12] = test system: LOX IMVI
[13] = test system: M14
[14] = test system: EKVX
[15] = test system: KM12
[16] = test system: OVCAR-3
[17] = test system: OVCAR-8
[18] = test system: RXF 393

Row | Compound | GI50 [1] | GI50 [2] | GI50 [3] | GI50 [4] | GI50 [5] | GI50 [6] [µM] | GI50 [7] | GI50 [8] | GI50 [9] | GI50 [10] | GI50 [11] | GI50 [12] | GI50 [13] | GI50 [14] | GI50 [15] | GI50 [16] | GI50 [17] | GI50 [18]
1 | CN(C(=O)C12C3C4C5C3C1(C(=O)O)C5C42)C(C)(C)C (stereo not given) | 52 µM (inactive) | > 100 µM (inactive) | > 100 µM (inactive) | > 100 µM (inactive) | > 100 µM (inactive) | 33.2 | > 100 µM (inactive) | > 100 µM (inactive) | > 100 µM (inactive) | > 100 µM (inactive) | > 100 µM (inactive) | 26.1 µM (inactive) | > 100 µM (inactive) | > 100 µM (inactive) | > 100 µM (inactive) | > 100 µM (inactive) | > 100 µM (inactive) | 
2 | C[n+]1c2ccccc2c(CNCC(=O)O)c2ccccc21 | 0.29 µM (active) | 3.76 µM (inactive) | 3.98 µM (inactive) | 0.137 µM (active) | 1.21 µM (inactive) | 0.805 | 3.62 µM (inactive) | 0.929 µM (active) | 2.61 µM (inactive) | 0.406 µM (active) | 6.95 µM (inactive) |  | 3.97 µM (inactive) | 2.56 µM (inactive) | 0.452 µM (active) | 1.87 µM (inactive) | 2.75 µM (inactive) | 2.38 µM (inactive)
3 | CCOC(=O)[C@H]1Nc2ccc(O)cc2C2c3ccccc3CC21 (stereo not given in full) | 43.2 µM (inactive) | > 100 µM (inactive) | 33.3 µM (inactive) | 61.7 µM (inactive) | 51.3 µM (inactive) | 72.8 | 88.7 µM (inactive) |  | > 100 µM (inactive) | > 100 µM (inactive) | 53.7 µM (inactive) | 81.3 µM (inactive) | 59.7 µM (inactive) | 42.3 µM (inactive) | > 100 µM (inactive) | 35.2 µM (inactive) | > 100 µM (inactive) | 17.7 µM (inactive)
4 | Cc1ccc(S(=O)(=O)C2CC2(Cl)Cl)cc1 (stereo not given) |  | 50.1 µM (inactive) |  | 12.5 µM (inactive) | 27.4 µM (inactive) | 23.4 | > 100 µM (inactive) | 26 µM (inactive) |  | 26.6 µM (inactive) | 24.7 µM (inactive) | 15.9 µM (inactive) | 14.7 µM (inactive) | > 100 µM (inactive) | 66.2 µM (inactive) | 19.9 µM (inactive) | 20.9 µM (inactive) | 15.1 µM (inactive)
5 | CN(C)/N=N/c1ccc(S(N)(=O)=O)cc1 | > 100 µM (inactive) | > 100 µM (inactive) | > 100 µM (inactive) | > 100 µM (inactive) | > 100 µM (inactive) | > 100 | > 100 µM (inactive) | > 100 µM (inactive) | > 100 µM (inactive) | > 100 µM (inactive) | > 100 µM (inactive) | > 100 µM (inactive) | > 100 µM (inactive) | > 100 µM (inactive) | > 100 µM (inactive) | > 100 µM (inactive) | > 100 µM (inactive) | 
6 | Cc1ccc(S(=O)(=O)NC2(C=O)CCC(C(C)(C)C)CC2)cc1 (stereo not given) | 19.1 µM (inactive) | 32.3 µM (inactive) | 21.9 µM (inactive) | 24.3 µM (inactive) | 39 µM (inactive) | 32.6 | 34.3 µM (inactive) | 30.7 µM (inactive) | 89.9 µM (inactive) | > 100 µM (inactive) | 31.2 µM (inactive) |  | 71 µM (inactive) | 38.1 µM (inactive) | 27 µM (inactive) | 24.5 µM (inactive) | 36.5 µM (inactive) | 27.3 µM (inactive)
7 | N#CC1=C(c2ccccc2)OC2(N)OC(c3ccccc3)=C(C#N)C12C#N (stereo not given) | 39.4 µM (inactive) | > 100 µM (inactive) | > 100 µM (inactive) |  | > 100 µM (inactive) | > 100 | > 100 µM (inactive) |  | > 100 µM (inactive) | 84.1 µM (inactive) | > 100 µM (inactive) | > 100 µM (inactive) | > 100 µM (inactive) | > 100 µM (inactive) | > 100 µM (inactive) | 36.9 µM (inactive) | 74.8 µM (inactive) | 69.3 µM (inactive)
8 | C[Si](C)(c1ccccc1)C1CC(=O)CC(=O)C1 | > 100 µM (inactive) | > 100 µM (inactive) | > 100 µM (inactive) | 26.1 µM (inactive) | > 100 µM (inactive) | > 100 | > 100 µM (inactive) |  |  | > 100 µM (inactive) | > 100 µM (inactive) | 20.8 µM (inactive) | > 100 µM (inactive) | > 100 µM (inactive) | > 100 µM (inactive) | > 100 µM (inactive) | > 100 µM (inactive) | 37.3 µM (inactive)
9 | COc1nc2c(c(O)c(C)c(=O)n2OC2OCC(OC(C)=O)C(OC(C)=O)C2OC(C)=O)c(=O)n1C (stereo not given) |  | > 100 µM (inactive) | > 100 µM (inactive) | 91.8 µM (inactive) | > 100 µM (inactive) | > 100 | > 100 µM (inactive) |  |  |  | > 100 µM (inactive) | > 100 µM (inactive) | > 100 µM (inactive) | > 100 µM (inactive) | > 100 µM (inactive) |  | > 100 µM (inactive) | > 100 µM (inactive)
